Results taken from ChEMBL document CHEMBL1133348, “Quinonic derivatives active against a virulent strain of Toxoplasma gondii. Synthesis of 2-methylfuro[2,3-g]- and [3,2-g]isoquinolinetriones” (2000).

Each compound was assayed on THP-1 (assay: Percentage growth inhibition of Toxoplasma gondii at concentration of 2 ug/mL using an human myelomonocytic cell line THP-1). Details: read-out: GI.
Format: functional
Work on Cc1cnc2c(c1)C(=O)c1c(oc(C)c1C)C2=O yielded an inhibition of growth at 2 µg/mL of 96.5%.
Cc1cc2c(o1)C(=O)c1cc(O)ncc1C2=O gave an inhibition of growth at 2 µg/mL of 92%.
Compound Cc1cc2c(o1)C(=O)C=C(Br)C2=O has an inhibition of growth at 2 µg/mL of 83%.
In the case of Cc1c2c(cc(=O)n1C)C(=O)c1ccccc1C2=O, the inhibition of growth at 2 µg/mL is reported as 56%.
Work on CCOc1cnc2c(c1C)C(=O)c1oc(C)c(C)c1C2=O yielded an inhibition of growth at 2 µg/mL of 89.5%.
For Cc1cc2c(o1)C(=O)c1cnc(O)cc1C2=O, the inhibition of growth at 2 µg/mL was 62%.
Compound O=C1c2ccccc2C(=O)c2cc(O)ncc21 has an inhibition of growth at 2 µg/mL of 80%.
With Cn1cc2c(cc1=O)C(=O)c1ccccc1C2=O the inhibition of growth at 2 µg/mL was 52%.
Compound Cc1nc(O)cc2c1C(=O)c1cccc(O)c1C2=O has an inhibition of growth at 2 µg/mL of 50%.
O=C1c2cc(O)ncc2C(=O)c2c(O)cccc21 gave an inhibition of growth at 2 µg/mL of 54%.
Work on O=C1C=C(Br)C(=O)c2ccccc21 [2-Bromo-1,4-naphthoquinone] yielded an inhibition of growth at 2 µg/mL of 66%.
Compound O=C1C(O)=C([C@H]2CC[C@H](c3ccc(Cl)cc3)CC2)C(=O)c2ccccc21 [ATOVAQUONE] has an inhibition of growth at 2 µg/mL of 95%.
CCC[C@@H]1C[C@@H](C(=O)N[C@@H]([C@H]2O[C@H](SC)[C@H](O)[C@@H](O)[C@H]2O)[C@H](C)Cl)N(C)C1 [CLINDAMYCIN] showed an inhibition of growth at 2 µg/mL of 86%.
CCc1nc(N)nc(N)c1-c1ccc(Cl)cc1 [PYRIMETHAMINE] was tested, and the inhibition of growth at 2 µg/mL was 94%.
For Nc1ccc(S(=O)(=O)Nc2ncccn2)cc1 [SULFADIAZINE], the inhibition of growth at 2 µg/mL was 90%.
